Legend:
[1] = test system: HPAC (homozygous mutant KRAS G12D human pancreatic cell line); assay: KRAS 3D-Cell Proliferation Assay, HPAC (Example 503); type: cell-based; conditions: Homo sapiens, HPAC, 168 h, HPAC 3D culture, 7 days, CellTiter-Glo 3D; read-out: Prolif HPAC 3D ATP IC50
Procedure, shortened: (§1)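 KRAS G12D homozygous pancreatic lines and KRAS wild-type lung lines grown as 3D cultures in ultra-low-attachment wells in RPMI-1640/10% FBS, dosed after overnight with compound dilution series (0.3% DMSO final) for 7 days at 37 °C. ATP read by CellTiter-Glo 3D luminescence; IC50 from 4-parameter Hill fit, normalized to DMSO and 1 μM staurosporine.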

[2] = test system: H1975 (KRAS wild type human lung adenocarcinoma cell line); assay: KRAS 3D-Cell Proliferation Assay, H1975 (Example 503); type: cell-based; conditions: Homo sapiens, NCI-H1975, 168 h, H1975 3D culture, 7 days, CellTiter-Glo 3D; read-out: Prolif H1975 3D ATP IC50
Procedure, shortened: as §1

Structure (SMILES)	IC50 [1] [nM]	IC50 [2] [nM]
COC1(C)CN(CC2(COc3nc4c5c(nc(-c6cc(N)nc(C)c6C(F)(F)F)c(F)c5n3)O[C@@H](C)[C@@H]3[C@@H]5CC[C@H](CN43)N5)CC2)C1 [Compound 273, 4-((5S,5aS,6S,9R)-1-fluoro-12-((1-((3-methoxy-3-methylazetidin-1-yl)methyl)cyclopropyl)methoxy)-5-methyl-5a,6,7,8,9,10-hexahydro-5H-4-oxa-3,10a,11,13,14-pentaaza-6,9-methanonaphtho[1,8-ab]heptalene-2-yl)-6-methyl-5-(trifluoromethyl)pyridin-2-amine]	6.53	3190
Cc1nc(N)cc(-c2nc3c4c(nc(OCC5(CN6C[C@H]7C[C@@H]6CO7)CC5)nc4c2F)N2C[C@H]4CC[C@H](N4)[C@H]2[C@H](C)O3)c1C(F)(F)F [Compound 209, 4-((5S,5aS,6S,9R)-12-((1-(((1R,4R)-2-Oxa-5-azabicyclo[2.2.1]heptan-5-yl)methyl)cyclopropyl)methoxy)-1-fluoro-5-methyl-5a,6,7,8,9,10-hexahydro-5H-4-oxa-3,10a,11,13,14-pentaaza-6,9-methanonaphtho[1,8-ab]heptalene-2-yl)-6-methyl-5-(trifluoromethyl)pyridin-2-amine]	3.47	282
COC1(C(F)F)CN(CC2(COc3nc4c5c(nc(-c6cc(N)nc(C)c6C(F)(F)F)c(F)c5n3)O[C@@H](C)[C@@H]3[C@@H]5CC[C@H](CN43)N5)CC2)C1 [Compound 271, 4-((5S,5aS,6S,9R)-12-((1-((3-(difluoromethyl)-3-methoxyazetidin-1-yl)methyl)cyclopropyl)methoxy)-1-fluoro-5-methyl-5a,6,7,8,9,10-hexahydro-5H-4-oxa-3,10a,11,13,14-pentaaza-6,9-methanonaphtho[1,8-ab]heptalene-2-yl)-6-methyl-5-(trifluoromethyl)pyridin-2-amine]	4.49	10900
C[C@@H]1Oc2nc(-c3cccc4sc(N)nc34)c(F)c3nc(OC[C@@]45CCCN4C[C@H](F)C5)nc(c23)N2C[C@H]3CC[C@H](N3)[C@@H]12 [Compound 116, 4-((5S,5aS,6S,9R)-1-fluoro-12-(((2R,7aS)-2-fluorotetrahydro-1H-pyrrolizin-7a(5H)-yl)methoxy)-5-methyl-5a,6,7,8,9,10-hexahydro-5H-4-oxa-3,10a,11,13,14-pentaaza-6,9-methanonaphtho[1,8-ab]heptalen-2-yl)benzo[d]thiazol-2-amine]	513	20000
Cc1c(Cl)c(N)cc(-c2nc3c4c(nc(OC[C@@]56CCCN5C[C@H](F)C6)nc4c2Cl)N2C[C@H]4CC[C@H](N4)[C@H]2[C@H](C)O3)c1C(F)(F)F [Compound 241, 2-Chloro-5-((5S,5aS,6S,9R)-1-chloro-12-(((2R,7aS)-2-fluorotetrahydro-1H-pyrrolizin-7a(5H)-yl)methoxy)-5-methyl-5a,6,7,8,9,10-hexahydro-5H-4-oxa-3,10a,11,13,14-pentaaza-6,9-methanonaphtho[1,8-ab]heptalen-2-yl)-3-methyl-4-(trifluoromethyl)aniline]	16.2	1200
C[C@@H]1Oc2nc(-c3cc(N)cc(F)c3C(F)(F)F)c(F)c3nc(OCC4CCC5N4CCOC5(C)C)nc(c23)N2C[C@H]3CC[C@H](N3)[C@@H]12 (stereo partly drawn) [Compound 157, 3-((5S,5aS,6S,9R)-12-((1,1-Dimethylhexahydro-1H-pyrrolo[2,1-c][1,4]oxazin-6-yl)methoxy)-1-fluoro-5-methyl-5a,6,7,8,9,10-hexahydro-5H-4-oxa-3,10a,11,13,14-pentaaza-6,9-methanonaphtho[1,8-ab]heptalen-2-yl)-5-fluoro-4-(trifluoromethyl)aniline]	12.8	2140
Cc1c(F)c(N)cc(-c2nc3c4c(nc(OC[C@]56COC[C@H]5CCN6C)nc4c2F)N2C[C@H]4CC[C@H](N4)[C@H]2[C@H](C)O3)c1C(F)(F)F (single isomer, unassigned) [134 (isomer 1)]	8.59	2550
Cc1c(F)c(N)cc(-c2nc3c4c(nc(OCC56C[C@H](F)CN5C[C@@H](F)C6)nc4c2F)N2C[C@H]4CC[C@H](N4)[C@H]2[C@H](C)O3)c1C(F)(F)F [Compound 139, 5-((5S,5aS,6S,9R)-12-(((2S,6S)-2,6-Difluorotetrahydro-1H-pyrrolizin-7a(5H)-yl)methoxy)-1-fluoro-5-methyl-5a,6,7,8,9,10-hexahydro-5H-4-oxa-3,10a,11,13,14-pentaaza-6,9-methanonaphtho[1,8-ab]heptalen-2-yl)-2-fluoro-3-methyl-4-(trifluoromethyl)aniline]	118	8570
Cc1c(F)c(N)cc(-c2nc3c4c(nc(OCC5(CN6CC(F)C6)CC5)nc4c2F)N2C[C@H]4CC[C@H](N4)[C@H]2[C@H](C)O3)c1C(F)(F)F [Compound 173, 2-Fluoro-5-((5S,5aS,6S,9R)-1-fluoro-12-((1-((3-fluoroazetidin-1-yl)methyl)cyclopropyl)methoxy)-5-methyl-5a,6,7,8,9,10-hexahydro-5H-4-oxa-3,10a,11,13,14-pentaaza-6,9-methanonaphtho[1,8-ab]heptalene-2-yl)-3-methyl-4-(trifluoromethyl)aniline]	1.33	917
C[C@@H]1Oc2nc(N(C)c3ccc(F)c(N)c3)c(F)c3nc(OC[C@@]45CCCN4C[C@H](F)C5)nc(c23)N2C[C@H]3CC[C@H](N3)[C@@H]12 [Compound 193, 4-fluoro-N^1-((5S,5aS,6S,9R)-1-fluoro-12-(((2R,7aS)-2-fluorotetrahydro-1H-pyrrolizin-7a(5H)-yl)methoxy)-5-methyl-5a,6,7,8,9,10-hexahydro-5H-4-oxa-3,10a,11,13,14-pentaaza-6,9-methanonaphtho[1,8-ab]heptalen-2-yl)-N^1-methylbenzene-1,3-diamine]	2000	20000
Cc1nc(N)cc(-c2nc3c4c(nc(OCC5(CN6CCC7(CCCO7)C6)CC5)nc4c2F)N2C[C@H]4CC[C@H](N4)[C@H]2[C@H](C)O3)c1C(F)(F)F (stereo partly drawn) [Compound 287, 4-((5S,5aS,6S,9R)-12-((1-((1-oxa-7-azaspiro[4.4]nonan-7-yl)methyl)cyclopropyl)methoxy)-1-fluoro-5-methyl-5a,6,7,8,9,10-hexahydro-5H-4-oxa-3,10a,11,13,14-pentaaza[6,9]methanonaphtho[1,8-ab]heptalene-2-yl)-6-methyl-5-(trifluoromethyl)pyridin-2-amine]	5.72	1380
Cc1c(F)c(N)cc(-c2nc3c4c(nc(OC[C@@H]5CCC6C=C(F)CCN65)nc4c2F)N2C[C@H]4CC[C@H](N4)[C@H]2[C@H](C)O3)c1C(F)(F)F (stereo partly drawn) [Compound 120, 2-fluoro-5-((5S,5aS,6S,9R)-1-fluoro-12-(((3S)-7-fluoro-1,2,3,5,6,8a-hexahydroindolizin-3-yl)methoxy)-5-methyl-5a,6,7,8,9,10-hexahydro-5H-4-oxa-3,10a,11,13,14-pentaaza-6,9-methanonaphtho[1,8-ab]heptalen-2-yl)-3-methyl-4-(trifluoromethyl)aniline]	10.6	1530
